From US9169355B2, “Biocompatible agent for dispersing nanoparticles into an aqueous medium using mussel adhesive protein-mimetic polymer” (Hanwha Chemical Corporation, priority 2010, dated 2015) come the findings set out here.

For the data set the following is noted: mouse, in vivo.

For the substance Fe3O4, the half-life in blood entry is “prolonged”.
